Earlier results in US20240139293A1, “Compositions and Methods for Enhancing Anti-Viral Therapies” (XORTX THERAPEUTICS, INC., priority 2021, published 2024).

System: SARS-CoV-2
Conditions: cited study: SARS-CoV-2 replication in vivo and in vitro

## CCCN(CCC)S(=O)(=O)c1ccc(C(=O)O)cc1 [probenecid]
  viral load due to Coronavirus: can decrease viral load
